Assays:
[1] = cited from earlier work
[2] = test system: Sod1tm1Leb/J mouse retina; format: in vivo, mice; conditions: 250 mg/kg IP once daily from three days before paraquat; 0.75 mM intravitreal paraquat; ERG days 1 and 7; n=4
Excerpt: In furtherance of the in vitro results of Example 1 we carried out an in vivo experiment examining the ability of valproic acid to protect against oxidative insult (oxidative stress) to mammalian retina. We used a murine model in which oxidative stress is induced by pre-dosing with intravitreal paraquat in Sod1^tm1Leb/J mouse model (as set forth in Dong A., et al., Superoxide Dismutase 1 Protects Retinal Cells From Oxidative Damage, J Cell Physio 208:516-526, 2006).
C57BL6 mice heterozygous from the SOD1 gene were obtained from Jackson labs (strain B6;129S7-Sod1tm1Leb/J). The mice were 3-4 months of age at the time of the experiment. […]
ERG recording were measured on dark adapted animals on days 1 and 7 post paraquat injection using an Espion ERG Diagnosys system and Burian-Allen electrodes, 3.0 mm diameter from LKC Technologies, Inc. For ERG recordings mice were anesthetized with ketamine (100 mg/kg) plus xylazine (50 mg/kg) administered IP and pupils dilated with 1% Akpentolate (cyclopentolate hydrochloride) and 10% AK-Dilate (phenylephrine hydrochloride). […] Scotopic ERGs were recorded using a 0.001, 0.01, and 1 cd·s/m2 flash as well as a 20 Hz flicker with the animal on a heating pad. A-wave, B-wave amplitudes were then calculated and statistically significant changes between valproic treated and non-treated animals determined using T test, n=4.

visual system = conditions: systemic administration to mammals (Goto et al. 2003, rats); cited from earlier work

| SMILES | water solubility [1] | effect on paraquat induced decrease in ERG B-wave amplitude [2] | effect on ERG a- and b-wave amplitudes and VEP (visual system) |
| --- | --- | --- | --- |
| CCCC(CCC)C(=O)[O-].[Na+] [sodium valproate] | highly water soluble |  |  |
| CCCC(CCC)C(=O)O [valproic acid, 2-propylpentanoic acid] |  | significantly inhibited paraquat induced decrease in B-wave amplitude | suppress ERG a- and b-wave amplitudes as well as VEP |

Reference: patent US20130237602A1, “VALPROIC ACID DRUG DELIVERY SYSTEMS AND INTRAOCULAR THERAPEUTIC USES THEREOF” (ALLERGAN, INC., priority 2009, published 2013)
